Source: patent EP2402356A2, “Modified 2',3'-dideoxynucleosides for treatment infections caused by human immunodeficiency virus (HIV) multidrug resistant strains, method of their synthesis and the pharmaceutical agent containing these nucleosides” (Instytut Biochemii I Biofizyki Pan, priority 2010, dated 2012)
Like-named read-outs stand apart in the source and are kept apart here.

Experiments:
[1] = test system: NNRTI (RTMDR) 5 resistant; test: microbe, parasite or virus in culture; assay type: cell-based, HIV-1; conditions: Human immunodeficiency virus 1
NRTI (RTMC) resistant = test: microbe, parasite or virus in culture; assay type: cell-based, HIV-1; conditions: Human immunodeficiency virus 1
Wild type # = test: Antiviral activity (EC50) in CEMA and CEM-T4 cells; assay type: cell-based, HIV-1; conditions: Human immunodeficiency virus 1; wild type # marked a,b = CEMA and CEM-T4 cells
Wild type pNL4-3 = test: Antiviral activity (EC50), deCIPhR cell system, beta-galactosidase indicator cell readout; assay type: cell-based, HIV-1
[2] = test system: Recombin ant provirus from the patient 7007984; test: microbe, parasite or virus in culture; assay type: cell-based, HIV-1
[3] = Cytotoxicity, Alamar Blue Cell Viability Assay; conditions: deciphr cells
[4] = test system: Recombin ant provirus from the patient 6021959; test: microbe, parasite or virus in culture; assay type: cell-based, HIV-1
[5] = Human immunodeficiency virus 1, CEM-T4
[6] = HIV-1 wild type pNL4-3, cells per table title (deCIPhR, CEMA, CEM-T4), row has no cell mark, presumably deCIPhR, read-out: EC50
[7] = recombinant provirus from patient 7007984, RT resistant mutations M41 L, K70R, A985, T215Y, read-out: EC50
[8] = recombinant provirus from patient 6021959, RT resistance mutations M41 L, E44D, T69D, L741, K103N, V108I, V118I, M184V, M230L, T215Y, G333E, read-out: EC50

Structure (SMILES) | EC50 [1] [nM] | EC50 (NRTI (RTMC) resistant) [nM] | EC50 (Wild type #) [nM] | EC50 (Wild type pNL4-3; [5]) [nM] | EC50 ([2]; Human immunodeficiency virus 1) [nM] | CC50 [3] [nM] | EC50 ([4]; Human immunodeficiency virus 1) [nM] | cytotoxicity (CD50) (deCIPhR™ cell system) | EC50 (Wild type pNL4-3; [6]) [nM] | EC50 [2, 7] [nM] | EC50 [4, 8] [nM]
COCCCCCCCCCCCC(=O)OC[C@H]1O[C@@H](n2cc(C)c(=S)[nH]c2=O)C[C@@H]1F [WA2 1, 1-(2,3-dideoxy-3-fluoro-5-O-(12-methoxydodecanoyl)-b-D-ribofuranosyl)-4-thiothymine] | 550 | 180 | 330 | 269 | 3150 | > 200000 | 9260 | not toxic |  |  | 
CCSCCCCCCCCCCCC(=O)OC[C@H]1O[C@@H](n2cc(C)c(=S)[nH]c2=O)C[C@@H]1F [WA-2 2, 1-(2,3-dideoxy-5-O-(12-thioethyldodecanoyl)-3-fluoro-b-D-ribofuranosyl)-4-thiothymine] |  | 75 | 120 | 998 | 5920 | > 200000 | 10000 | not toxic |  |  | 
Cc1cn([C@H]2C[C@H](F)[C@@H](COC(=O)CCCCCCCCCCCBr)O2)c(=O)[nH]c1=S [WA- 19, 1-(5-O-(12-bromododecanoyl)-2.3-dideoxy-3-fluoro-b-D-ribofuranosyl)-4-th iothymine] |  |  |  | 710 |  | > 200000 | 10000 | not toxic |  |  | 
Cc1cn([C@H]2C[C@H](F)[C@@H](COP(=O)(O)O)O2)c(=O)[nH]c1=O [FLT MP, reference compound] |  |  |  |  |  |  |  |  | 10 | 18 | 30
Cc1cn([C@H]2C[C@H](F)[C@@H](COC(=O)CCCCCCCCCCCN=[N+]=[N-])O2)c(=O)[nH]c1=S [WA- 2 0, 1-(5-O-(12-azidododecanoyl)-2,3-dideoxy-3-fluoro-b-D-ribofuranosyl)-4-thi othymine] | 100 | ≤ 100000 | 450 | 822 | 2880 | > 200000 | 4640 | not toxic |  |  | 
Cc1cn([C@H]2C[C@H](N=[N+]=[N-])[C@@H](COP(=O)(O)O)O2)c(=O)[nH]c1=O [AZTM P, reference compound] |  |  |  |  |  |  |  |  | 63 | 1030 | 1710
CCCCCCCCCCCCCC(=O)OC[C@H]1O[C@@H](n2cc(C)c(=S)[nH]c2=O)C[C@@H]1F [WA- 18, 1-(2,3-dideoxy-3-fluoro-5-O-(12-tetradodecanoyl)-b-D-ribofuranosyl)-4-thio thymine] | 45 | 150 | 130 | 421 | 2400 | > 200000 | 8340 | not toxic |  |  | 
CCSCCCCCCCCCCC(=O)OC[C@H]1O[C@@H](n2cc(C)c(=S)[nH]c2=O)C[C@@H]1F [WA-2 3, 1-(5-O-(2,3-dideoxy-11-thioethylundecanoyl)-3-fluoro-b-D-ribofuranosyl)-4-thiothymine] | 480 | 450 | 450 | 965 |  | > 200000 | 5520 | not toxic |  |  | 
